Measurements reported in ChEMBL document CHEMBL1201862, “PubChem BioAssay data set” (2004).
The source made the active and inactive calls.

Columns and labels:
Fatty acid synthase [1] = molecular target: T1, Fatty acid synthase (Homo sapiens, UniProt P49327); assay: inhibition of human FAS-TE enzyme activity – biochemical, kinetic fluorescence intensity, dose response (AID 624326); assay type: functional;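 note: rate of fluorescence rise from hydrolysis of a fluorogenic O-methyl fluorescein ester substrate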
T1 sequence (P49327 whole entry): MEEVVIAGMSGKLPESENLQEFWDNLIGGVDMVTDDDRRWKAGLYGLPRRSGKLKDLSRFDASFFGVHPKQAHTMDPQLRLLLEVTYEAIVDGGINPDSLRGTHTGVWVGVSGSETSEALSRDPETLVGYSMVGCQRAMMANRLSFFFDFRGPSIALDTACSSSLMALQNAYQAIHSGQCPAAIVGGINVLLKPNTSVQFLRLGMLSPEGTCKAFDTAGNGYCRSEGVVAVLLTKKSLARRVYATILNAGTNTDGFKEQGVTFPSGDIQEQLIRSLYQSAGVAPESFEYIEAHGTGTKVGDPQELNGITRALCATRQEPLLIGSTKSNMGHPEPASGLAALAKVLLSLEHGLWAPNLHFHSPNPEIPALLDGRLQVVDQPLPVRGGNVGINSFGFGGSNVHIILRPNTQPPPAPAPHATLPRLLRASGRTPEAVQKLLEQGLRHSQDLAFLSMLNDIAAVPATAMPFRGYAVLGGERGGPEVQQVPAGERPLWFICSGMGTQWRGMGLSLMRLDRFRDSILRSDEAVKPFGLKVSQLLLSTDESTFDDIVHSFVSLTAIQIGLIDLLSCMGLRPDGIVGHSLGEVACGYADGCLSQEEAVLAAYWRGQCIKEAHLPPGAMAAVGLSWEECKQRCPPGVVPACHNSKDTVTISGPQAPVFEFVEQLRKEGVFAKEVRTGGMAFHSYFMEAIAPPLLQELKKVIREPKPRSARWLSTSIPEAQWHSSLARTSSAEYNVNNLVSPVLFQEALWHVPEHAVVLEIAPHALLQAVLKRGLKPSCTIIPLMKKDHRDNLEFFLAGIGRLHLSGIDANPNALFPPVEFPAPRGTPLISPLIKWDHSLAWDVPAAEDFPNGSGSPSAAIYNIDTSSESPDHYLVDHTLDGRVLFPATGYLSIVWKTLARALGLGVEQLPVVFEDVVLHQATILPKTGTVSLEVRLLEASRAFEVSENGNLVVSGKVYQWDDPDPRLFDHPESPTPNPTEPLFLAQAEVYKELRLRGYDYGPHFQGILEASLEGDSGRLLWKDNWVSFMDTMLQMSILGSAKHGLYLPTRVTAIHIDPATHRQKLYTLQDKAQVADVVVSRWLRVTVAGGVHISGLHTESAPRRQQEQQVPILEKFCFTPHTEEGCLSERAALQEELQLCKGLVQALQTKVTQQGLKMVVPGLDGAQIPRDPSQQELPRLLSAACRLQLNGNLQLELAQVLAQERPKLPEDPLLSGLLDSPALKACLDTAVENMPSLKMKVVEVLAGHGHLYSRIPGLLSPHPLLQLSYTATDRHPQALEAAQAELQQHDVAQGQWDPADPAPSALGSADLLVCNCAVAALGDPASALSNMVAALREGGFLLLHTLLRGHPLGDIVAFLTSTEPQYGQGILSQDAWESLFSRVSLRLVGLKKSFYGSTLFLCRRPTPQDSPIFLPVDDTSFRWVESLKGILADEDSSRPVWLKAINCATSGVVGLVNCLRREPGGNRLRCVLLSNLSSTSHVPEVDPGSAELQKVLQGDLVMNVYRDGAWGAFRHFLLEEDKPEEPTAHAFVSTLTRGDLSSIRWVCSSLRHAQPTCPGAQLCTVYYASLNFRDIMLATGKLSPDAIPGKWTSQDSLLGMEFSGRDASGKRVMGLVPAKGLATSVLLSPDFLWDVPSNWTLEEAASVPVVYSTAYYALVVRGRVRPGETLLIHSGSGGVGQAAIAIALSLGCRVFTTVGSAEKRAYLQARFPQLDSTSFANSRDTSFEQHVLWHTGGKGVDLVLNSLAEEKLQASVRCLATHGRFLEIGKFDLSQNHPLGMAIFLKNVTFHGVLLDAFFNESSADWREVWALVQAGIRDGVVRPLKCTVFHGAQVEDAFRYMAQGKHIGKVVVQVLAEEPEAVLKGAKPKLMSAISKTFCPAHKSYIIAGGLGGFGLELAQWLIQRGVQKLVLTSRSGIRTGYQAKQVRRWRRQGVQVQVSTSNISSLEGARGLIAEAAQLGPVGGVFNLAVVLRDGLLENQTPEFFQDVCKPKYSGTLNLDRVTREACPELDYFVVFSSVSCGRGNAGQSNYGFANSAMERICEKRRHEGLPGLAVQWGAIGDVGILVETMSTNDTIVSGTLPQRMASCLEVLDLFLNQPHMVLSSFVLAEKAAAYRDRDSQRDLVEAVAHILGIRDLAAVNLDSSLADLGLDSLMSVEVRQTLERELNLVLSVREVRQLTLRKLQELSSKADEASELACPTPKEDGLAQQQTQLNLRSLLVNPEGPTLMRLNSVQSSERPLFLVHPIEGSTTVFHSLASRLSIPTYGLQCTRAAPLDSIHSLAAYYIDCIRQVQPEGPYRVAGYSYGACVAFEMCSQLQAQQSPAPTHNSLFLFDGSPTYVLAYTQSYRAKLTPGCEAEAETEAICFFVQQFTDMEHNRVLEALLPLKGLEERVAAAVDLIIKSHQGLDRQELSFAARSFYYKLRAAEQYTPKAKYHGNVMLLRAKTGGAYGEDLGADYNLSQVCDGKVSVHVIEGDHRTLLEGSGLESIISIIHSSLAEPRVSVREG

Fatty acid synthase [2] = molecular target: T1, Fatty acid synthase; assay: inhibition of human FAS-TE enzyme activity – biochemical, endpoint fluorescence intensity, uHTS hits, dose response (AID 624327); assay type: functional;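 note: fluorescence from hydrolysis of an O-methyl fluorescein acyl ester substrate by the enzyme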
[3] = molecular target: T2, Carboxy-terminal domain RNA polymerase II polypeptide A small phosphatase 1 (Homo sapiens, UniProt Q9GZU7); assay: CTDSP1 inhibitors, concentration-response, biochemical, absorbance readout, ultra-high-throughput screen actives (AID 540297); assay type: functional
T2 sequence (Q9GZU7 whole entry): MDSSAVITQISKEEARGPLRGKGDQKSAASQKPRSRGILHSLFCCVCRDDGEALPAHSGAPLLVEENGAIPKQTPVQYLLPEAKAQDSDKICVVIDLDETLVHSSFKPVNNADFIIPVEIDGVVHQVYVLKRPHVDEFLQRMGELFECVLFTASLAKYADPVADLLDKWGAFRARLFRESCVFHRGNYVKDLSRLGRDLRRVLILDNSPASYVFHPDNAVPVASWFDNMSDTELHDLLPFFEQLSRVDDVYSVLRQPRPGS

Large T antigen = Large T antigen (Simian virus 40, UniProt P03070); assay type: functional, Betapolyomavirus macacae;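 note: Confirmatory-stage PubChem screen for compounds that inhibit SV40 T antigen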
Genome polyprotein = Genome polyprotein (dengue virus type 2, UniProt P29990); assay: flavivirus cap methylation enzyme inhibition – biochemical, confirmation dose response, primary screen (AID 588689); assay type: functional
Sequence of Genome polyprotein (P29990 2492-3391 limits assumed): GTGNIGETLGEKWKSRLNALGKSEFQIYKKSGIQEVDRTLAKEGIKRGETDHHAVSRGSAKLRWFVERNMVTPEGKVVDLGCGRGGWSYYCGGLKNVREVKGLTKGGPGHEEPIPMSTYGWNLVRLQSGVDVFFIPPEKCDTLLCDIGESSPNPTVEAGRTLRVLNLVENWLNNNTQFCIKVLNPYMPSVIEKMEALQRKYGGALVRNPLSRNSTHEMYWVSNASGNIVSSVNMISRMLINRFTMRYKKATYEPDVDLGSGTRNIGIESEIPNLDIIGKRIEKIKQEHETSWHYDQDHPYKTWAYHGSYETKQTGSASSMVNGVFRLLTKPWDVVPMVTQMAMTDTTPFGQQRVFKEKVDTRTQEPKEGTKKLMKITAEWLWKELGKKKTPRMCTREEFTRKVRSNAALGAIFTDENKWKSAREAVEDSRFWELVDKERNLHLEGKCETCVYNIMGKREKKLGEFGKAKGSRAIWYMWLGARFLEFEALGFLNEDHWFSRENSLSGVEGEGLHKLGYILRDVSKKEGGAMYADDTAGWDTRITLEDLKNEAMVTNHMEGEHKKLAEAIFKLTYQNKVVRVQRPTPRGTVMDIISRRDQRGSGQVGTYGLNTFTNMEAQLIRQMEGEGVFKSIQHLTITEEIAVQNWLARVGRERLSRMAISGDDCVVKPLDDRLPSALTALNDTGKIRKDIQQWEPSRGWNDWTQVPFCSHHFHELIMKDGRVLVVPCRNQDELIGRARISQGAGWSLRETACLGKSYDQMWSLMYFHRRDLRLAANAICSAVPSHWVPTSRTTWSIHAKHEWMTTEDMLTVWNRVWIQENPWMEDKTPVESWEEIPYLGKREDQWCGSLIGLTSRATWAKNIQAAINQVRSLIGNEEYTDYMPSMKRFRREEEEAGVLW

[4] = molecular target: T3, Heat shock factor protein 1 (Mus musculus, UniProt P38532); assay: enhancement of HSF1-driven luciferase signal – cell-based, NIH3T3, luminescence, dose retest, confirmation (AID 435004); assay type: functional;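 note: stress induced by proteasome inhibitor MG132 added 30 min after compound; luciferase reporter driven by HSF1 response element in NIH3T3 cells; actives raise luminescence as potentiators of the MG132 stress response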
T3 sequence (P38532 whole entry): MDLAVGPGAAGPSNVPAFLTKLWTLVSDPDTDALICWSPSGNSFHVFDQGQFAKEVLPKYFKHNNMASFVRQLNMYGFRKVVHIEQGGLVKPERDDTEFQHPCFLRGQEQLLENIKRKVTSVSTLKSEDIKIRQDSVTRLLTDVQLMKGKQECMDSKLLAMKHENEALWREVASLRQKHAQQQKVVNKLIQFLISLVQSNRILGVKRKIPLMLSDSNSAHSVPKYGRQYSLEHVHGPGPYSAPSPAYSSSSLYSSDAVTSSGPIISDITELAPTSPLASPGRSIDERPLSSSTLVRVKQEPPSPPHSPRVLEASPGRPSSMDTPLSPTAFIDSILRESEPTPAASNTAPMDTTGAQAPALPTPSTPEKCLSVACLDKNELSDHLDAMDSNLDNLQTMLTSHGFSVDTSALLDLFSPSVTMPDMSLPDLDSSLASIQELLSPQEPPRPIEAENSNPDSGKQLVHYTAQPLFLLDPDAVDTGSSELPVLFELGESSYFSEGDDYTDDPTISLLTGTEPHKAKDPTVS

H4 = assay: Luminescence Cell-Based Dose Response HTS to Identify Activators of 5'UTR Stem-Loop Driven Prion Protein mRNA Translation in H4 Neuroglioblastoma Cells. [Related pubchem assays: 1829 (Project Summary), 1814 (Primary HTS)]; assay type: functional; conditions: Homo sapiens
[5] = Luminescence Cell-Based Dose Response HTS to Identify Activators of Luciferase Translation or Activity in H4 […] Cells. [Related pubchem assays: 1829 (Project Summary), 1814 (Primary HTS)]; assay type: functional
[6] = Luminescence Cell-Based Dose Confirmation HTS to Identify Activators of 5'UTR Stem-Loop Driven Alpha-Synuclein mRNA Translation in H4 Neuroglioblastoma Cells. [Related pubchem assays: 1829 (Project Summary), 1814 (Primary HTS)]; assay type: functional
[7] = tested on: Streptococcus sp. 'group A'; assay: Streptococcus pyogenes SK(-)GAS viability under kanamycin – luminescence, BacTiterGlo, confirmation, counter-screen for streptokinase expression inhibitor project, dose response (AID 1900); assay type: functional, organism-based
[8] = molecular target: T3, Heat shock factor protein 1; assay: decrease of HSF1-responsive luciferase luminescence – cell-based, NIH3T3, dose retest, confirmation (AID 2382); assay type: functional;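 note: NIH3T3 fibroblasts with HSF1-driven luciferase reporter stressed by proteasome inhibitor MG132; luminescence from HSF1-driven luciferase expression after 8 hours of MG132 stress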
Streptococcus = assay: GAS UMAA2166 growth inhibition – luminescence, BacTiterGlo, counter-screen for streptokinase expression inhibitor project, dose response (AID 1915); assay type: functional, organism-based;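 note: potency for reduction of bacterial viability or growth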
[9] = molecular target: T4, Calpain-2 catalytic subunit (Sus scrofa, UniProt P43367); assay: m-calpain protease blockers, concentration series – biochemical, fluorogenic peptide substrate, dose response (AID 1420); assay type: functional
T4 sequence (P43367 whole entry): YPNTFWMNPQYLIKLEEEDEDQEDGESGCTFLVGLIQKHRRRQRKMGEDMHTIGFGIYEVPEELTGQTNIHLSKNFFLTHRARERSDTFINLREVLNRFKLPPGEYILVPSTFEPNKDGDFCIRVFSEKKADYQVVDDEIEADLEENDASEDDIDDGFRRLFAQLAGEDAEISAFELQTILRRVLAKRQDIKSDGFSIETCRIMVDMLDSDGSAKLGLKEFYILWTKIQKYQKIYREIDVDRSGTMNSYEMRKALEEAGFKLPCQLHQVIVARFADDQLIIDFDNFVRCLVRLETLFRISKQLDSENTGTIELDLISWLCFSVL

[10] = molecular target: Luciferin 4-monooxygenase (Photinus pyralis, UniProt P08659); assay: inhibition of purified Photinus pyralis luciferase – biochemical, luminescence, dose response (AID 1891)
Sequence of Luciferin 4-monooxygenase (P08659 whole entry): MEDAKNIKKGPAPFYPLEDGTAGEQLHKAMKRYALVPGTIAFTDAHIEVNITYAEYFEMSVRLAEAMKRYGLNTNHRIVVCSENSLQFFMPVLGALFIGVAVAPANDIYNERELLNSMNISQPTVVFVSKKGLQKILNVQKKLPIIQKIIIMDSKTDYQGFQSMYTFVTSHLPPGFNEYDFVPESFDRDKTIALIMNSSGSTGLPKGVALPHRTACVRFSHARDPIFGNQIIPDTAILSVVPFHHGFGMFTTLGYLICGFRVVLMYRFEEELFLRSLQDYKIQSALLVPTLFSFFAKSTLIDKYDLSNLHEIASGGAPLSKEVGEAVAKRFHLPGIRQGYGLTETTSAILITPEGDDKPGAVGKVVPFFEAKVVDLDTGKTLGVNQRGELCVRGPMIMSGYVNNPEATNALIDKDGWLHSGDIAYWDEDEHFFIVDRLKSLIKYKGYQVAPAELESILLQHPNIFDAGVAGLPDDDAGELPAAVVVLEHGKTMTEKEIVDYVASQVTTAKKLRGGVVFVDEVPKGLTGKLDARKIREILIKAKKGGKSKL

[11] = Luminescence Cell-Based Dose Confirmation HTS to Identify Inhibitors of Platelet Dense Granule Release. [Related pubchem assays: 1663 (Primary HTS), 1678 (Summary of Project)]; assay type: functional
[12] = P. falciparum Dd2 growth inhibitors, dose response, SYBR Green, cherry-picked samples (AID 1159567); assay type: functional, cell-based
[13] = molecular target: T5, Corticotropin-releasing factor receptor 2/Corticotropin-releasing factor-binding protein (Homo sapiens, UniProt P24387+Q13324); assay: Dose Response confirmation of uHTS hits for small molecule antagonists of the CRF-binding protein and CRF-R2 receptor complex.; assay type: functional; conditions: read-out: IC50_Mean
T5 sequence (Q13324 whole entry): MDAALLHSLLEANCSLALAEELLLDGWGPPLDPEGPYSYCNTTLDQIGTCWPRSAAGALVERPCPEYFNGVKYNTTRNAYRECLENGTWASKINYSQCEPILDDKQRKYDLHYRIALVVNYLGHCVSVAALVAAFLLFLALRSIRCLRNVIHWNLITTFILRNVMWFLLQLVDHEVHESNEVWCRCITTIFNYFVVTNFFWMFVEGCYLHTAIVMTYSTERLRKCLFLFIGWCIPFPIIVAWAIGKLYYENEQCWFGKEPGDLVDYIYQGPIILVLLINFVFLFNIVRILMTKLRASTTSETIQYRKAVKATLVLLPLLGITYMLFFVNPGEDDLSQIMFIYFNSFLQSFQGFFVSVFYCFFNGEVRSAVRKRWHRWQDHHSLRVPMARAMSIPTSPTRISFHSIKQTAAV
T5 sequence (P24387 whole entry): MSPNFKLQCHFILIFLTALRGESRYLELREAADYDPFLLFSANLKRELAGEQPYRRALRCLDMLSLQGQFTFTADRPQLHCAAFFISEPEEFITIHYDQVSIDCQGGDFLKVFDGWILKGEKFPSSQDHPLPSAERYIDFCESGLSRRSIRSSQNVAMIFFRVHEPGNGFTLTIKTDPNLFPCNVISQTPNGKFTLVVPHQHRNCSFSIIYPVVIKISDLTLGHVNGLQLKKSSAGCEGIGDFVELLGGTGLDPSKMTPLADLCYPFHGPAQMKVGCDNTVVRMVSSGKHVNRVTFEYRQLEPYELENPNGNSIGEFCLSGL

[14] = molecular target: T5, Corticotropin-releasing factor receptor 2/Corticotropin-releasing factor-binding protein; assay: activators of CRF receptor 2 with binding protein – uHTS hits, confirmation (AID 602473); assay type: functional; conditions: read-out: EC50_Mean
Cytochrome P450 3A4 = Cytochrome P450 3A4 (Homo sapiens, UniProt P08684);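 note: CYP3A4 tested as one member of a cytochrome P450 panel screen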
Sequence of Cytochrome P450 3A4 (P08684 whole entry): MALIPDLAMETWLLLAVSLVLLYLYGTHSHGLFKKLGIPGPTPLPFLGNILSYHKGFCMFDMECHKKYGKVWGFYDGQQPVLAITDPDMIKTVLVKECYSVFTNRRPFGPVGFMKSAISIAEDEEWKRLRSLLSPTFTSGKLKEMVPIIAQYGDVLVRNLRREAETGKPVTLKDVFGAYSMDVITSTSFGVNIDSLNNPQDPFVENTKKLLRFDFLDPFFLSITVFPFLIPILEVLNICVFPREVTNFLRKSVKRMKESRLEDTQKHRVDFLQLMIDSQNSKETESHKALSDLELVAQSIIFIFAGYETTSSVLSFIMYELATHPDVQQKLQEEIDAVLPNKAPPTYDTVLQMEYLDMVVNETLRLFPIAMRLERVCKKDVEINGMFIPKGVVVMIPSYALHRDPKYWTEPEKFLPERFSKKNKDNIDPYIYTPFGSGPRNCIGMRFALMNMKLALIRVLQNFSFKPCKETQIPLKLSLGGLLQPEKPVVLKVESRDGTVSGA

Cytochrome P450 2C19 = Cytochrome P450 2C19 (Homo sapiens, UniProt P33261); assay: Cytochrome panel assay with activity outcomes. Panel member name: p450-cyp2c19 Compounds with AC50 equal or less than 10 uM are considered active; assay type: functional; conditions: read-out: AC50
Sequence of Cytochrome P450 2C19 (P33261 whole entry): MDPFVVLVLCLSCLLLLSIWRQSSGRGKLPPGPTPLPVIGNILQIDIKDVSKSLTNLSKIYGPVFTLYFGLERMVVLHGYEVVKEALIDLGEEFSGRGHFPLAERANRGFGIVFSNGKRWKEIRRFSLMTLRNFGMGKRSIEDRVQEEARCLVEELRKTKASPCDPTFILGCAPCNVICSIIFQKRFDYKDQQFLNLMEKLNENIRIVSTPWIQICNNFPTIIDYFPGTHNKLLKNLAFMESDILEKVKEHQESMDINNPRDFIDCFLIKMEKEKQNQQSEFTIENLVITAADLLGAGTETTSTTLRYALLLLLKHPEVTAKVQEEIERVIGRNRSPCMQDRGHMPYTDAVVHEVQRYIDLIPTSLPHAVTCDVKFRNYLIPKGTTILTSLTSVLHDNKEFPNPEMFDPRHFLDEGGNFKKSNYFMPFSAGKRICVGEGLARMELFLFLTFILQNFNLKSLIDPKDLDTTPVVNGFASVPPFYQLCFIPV

In the case of COc1ccccc1/C=C(\NC(=O)c1ccc(OC)c(OC)c1)C(=O)Nc1cccc([N+](=O)[O-])c1, the IC50 (Fatty acid synthase [1]) is reported as 16 µM (active) and the IC50 (Fatty acid synthase [2]) is reported as 11.9 µM (active).

For C[N+]1(C)CCc2cc3c(cc2[C@H]1[C@@H]1OC(=O)c2c1ccc1c2OCO1)OCO3, the IC50 [3] was 3.48 µM (active).

With O=C(CS(=O)(=O)c1ccccc1)c1cc2cc(F)ccc2oc1=O the IC50 (Large T antigen) was 62.8 µM (active), the IC50 (Genome polyprotein) was > 100 µM (active) and the EC50 [4] was > 260 µM (inactive).

In the case of N#C/C(=C\c1c(N2CCC(C(N)=O)CC2)nc2ccccn2c1=O)S(=O)(=O)c1ccc(Cl)cc1, the IC50 (Fatty acid synthase [1]) is reported as 6.07 µM (active) and the IC50 (Fatty acid synthase [2]) is reported as 17.1 µM (active).

With C[C@@H]1CC=C[C@@H]2[C@H]1C(=O)N(Cc1ccccc1)[C@H]2c1cccc(C#Cc2ccccc2)c1 the IC50 [3] was 20 µM (active).

With COc1ccc(OC)c(S(=O)(=O)ON2C(=O)c3ccccc3C2=O)c1 the IC50 (Fatty acid synthase [1]) was 3.19 µM (active), the EC50 (H4) was > 120 µM (not active) and the EC50 [5] was > 120 µM (not active). The IC50 (Fatty acid synthase [2]) was 3.72 µM (active) and the EC50 [6] was > 120 µM (not active).

For COc1ccc([N+](=O)[O-])cc1NC(=O)C(C)NNC(=O)c1cccc([N+](=O)[O-])c1 (stereo not drawn), the IC50 (Fatty acid synthase [1]) was 10.7 µM (active) and the IC50 (Fatty acid synthase [2]) was 12.7 µM (active).

With CCS(=O)(=O)c1ccc(-c2csc(-c3ccccc3)n2)c(Cl)c1Cl the IC50 (Fatty acid synthase [1]) was 0.907 µM (active) and the IC50 (Fatty acid synthase [2]) was 1.21 µM (active).

For O=C(O)c1cccc(N/N=C/C2=C(Cl)c3cc(Cl)ccc3SC2)c1, the EC50 [7] was 2.48 µM (active), the EC50 [8] was > 195 µM (not active) and the EC50 (Streptococcus) was 6.65 µM (active). The IC50 [9] was 2.38 µM (not active).

With Cc1nc2sc(C(=O)c3ccccc3)c(N)c2c2c1CCCC2 the EC50 [10] was > 112 µM (not active), the EC50 (H4) was 10.5 µM (active) and the EC50 [5] was 6.25 µM (active). The EC50 [11] was > 112 µM (not active) and the EC50 [6] was > 120 µM (not active).

For CC(C)=C1C2CCC1C1C(=O)N(c3nc(-c4ccccc4)c(C)s3)C(=O)C21 (stereo not drawn), the EC50 [4] was > 260 µM (inactive) and the IC50 [9] was 8.52 µM (not active).

In the case of CCCNC(=O)N1CCC2(CC1)CN(Cc1ccc(F)cc1)[C@@H](CO)c1[nH]c3cc(OC)ccc3c12, the AC50 [12] is reported as 5.11 µM (active).

With C=CCn1c(=S)[nH]c2cc(C(=O)N3CCN(c4ccccc4OC)CC3)ccc2c1=O the IC50 (Fatty acid synthase [1]) was 32.9 µM (inactive) and the IC50 (Fatty acid synthase [2]) was 17.6 µM (active).

In the case of COc1cccc(/C=C2\Oc3cc(OCC(=O)N4Cc5ccccc5C[C@H]4C(=O)O)ccc3C2=O)c1, the IC50 (Genome polyprotein) is reported as 43.4 µM (active).

In the case of O=C(CCN1C(=O)/C(=C/c2ccc(Cl)cc2)SC1=S)Nc1cccc(C(=O)O)c1, the IC50 [3] is reported as 4.43 µM (active).

For Cc1ccc(-c2n[nH]c(Cc3ccccc3)n2)cc1, the EC50 (H4) was 60.8 µM (active), the EC50 [5] was 2.44 µM (active) and the EC50 [6] was 0.105 µM (active).

For C=CCNc1nc(C(=O)OCC(=O)c2cccc(Br)c2)cs1, the IC50 [3] was 4 µM (active).

In the case of COc1ccc(CN2CC3(CN(C(=O)Cc4ccccc4)C3)c3c([nH]c4cc(OC)ccc34)[C@H]2CO)cc1, the AC50 [12] is reported as 6.52 µM (active).

In the case of O=C(CN1C(=O)NC2(CCCCCC2)C1=O)Nc1ccc(Cl)c([N+](=O)[O-])c1, the IC50 (Fatty acid synthase [1]) is reported as 5.92 µM (active) and the IC50 (Fatty acid synthase [2]) is reported as 8.92 µM (active).

With CCCC12CN(C(=O)c3ccc([N+](=O)[O-])cc3)CC(C)(CN(C(=O)c3ccc([N+](=O)[O-])cc3)C1)C2=O the IC50 (Fatty acid synthase [1]) was 12.9 µM (active), the IC50 [13] was > 47.1 µM (inactive) and the EC50 [14] was > 53 µM (inactive). The IC50 (Fatty acid synthase [2]) was 9.85 µM (active).

With Cc1nc2nc(-c3cccs3)cn2nc1C the IC50 (Genome polyprotein) was 17.6 µM (active).

With O=[N+]([O-])c1ccc(-c2c[nH]c(SCc3ccccc3Cl)n2)cc1 the EC50 (H4) was 17.5 µM (active), the EC50 [5] was 18.9 µM (active) and the EC50 [6] was > 120 µM (not active).

With O=C(CSc1nnnn1-c1ccc(Cl)cc1)NC(=O)Nc1ccc2c(c1)OCCO2 the EC50 (H4) was 10.1 µM (active), the EC50 [5] was 45.7 µM (active) and the EC50 [6] was > 120 µM (not active).

For CCc1ccc(NC(=O)C[S+]([O-])CC(=O)NCCCc2ccccc2)cc1 (stereo not drawn), the IC50 [3] was 7.62 µM (active), the AC50 (Cytochrome P450 3A4) was 2.82 µM (inconclusive) and the AC50 (Cytochrome P450 2C19) was 11.2 µM (inconclusive).

For O=C1/C(=C/Nc2cccc(O)c2)c2ccccc2C(=O)N1c1ccc2c(c1)OCO2, the EC50 (H4) was > 120 µM (not active), the EC50 [5] was > 120 µM (not active) and the EC50 [6] was > 120 µM (not active).
